Target: T1, Solute carrier family 15 member 1 (Homo sapiens, UniProt P46059)
T1 sequence (P46059 whole entry): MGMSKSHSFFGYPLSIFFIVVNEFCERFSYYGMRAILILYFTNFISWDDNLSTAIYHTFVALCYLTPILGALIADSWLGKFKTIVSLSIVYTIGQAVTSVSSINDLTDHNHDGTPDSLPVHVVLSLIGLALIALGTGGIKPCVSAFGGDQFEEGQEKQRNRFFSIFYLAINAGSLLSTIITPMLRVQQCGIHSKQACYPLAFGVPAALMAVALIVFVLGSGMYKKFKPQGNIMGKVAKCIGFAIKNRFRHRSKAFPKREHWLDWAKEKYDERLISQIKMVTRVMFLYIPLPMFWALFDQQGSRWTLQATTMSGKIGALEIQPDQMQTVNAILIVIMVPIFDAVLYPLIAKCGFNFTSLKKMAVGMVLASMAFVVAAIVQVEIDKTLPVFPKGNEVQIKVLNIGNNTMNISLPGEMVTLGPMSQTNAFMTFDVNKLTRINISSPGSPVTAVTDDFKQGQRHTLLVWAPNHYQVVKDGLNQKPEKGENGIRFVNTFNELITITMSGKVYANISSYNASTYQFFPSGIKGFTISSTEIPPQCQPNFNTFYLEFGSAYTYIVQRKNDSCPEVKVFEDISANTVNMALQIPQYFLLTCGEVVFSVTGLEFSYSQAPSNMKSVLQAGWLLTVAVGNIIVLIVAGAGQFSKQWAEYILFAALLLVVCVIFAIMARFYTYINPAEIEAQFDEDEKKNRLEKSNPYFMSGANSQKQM
Assay: TP_TRANSPORTER: inhibition of Gly-Sar uptake, 96% trans conformation in Caco-2 cells
Type: functional, cell-based

In the case of `CC(N)C(=S)N1CCCC1C(=O)O` (stereo unspecified), the Ki is reported as 300 µM.
